EP2271935B1, “METHOD AND KIT FOR THE EX VIVO EVALUATION OF THE RESPONSE OF A TUMOR TO CONDITIONS TO BE TESTED” (Universität Leipzig, priority 2008, dated 2009)
Like-named read-outs stand apart in the source and are kept apart here.

Test system: epithelial cell line KB (DSMZ ACC 136)
Assay: MTT assay of proliferation under varied riboflavin content and light exposure
Assay type: cell-based, human
Source text: To address this question, three media, a) the RPMI 1640 without riboflavin and phenol red that is used in the method according to the invention and was manufactured according to our specifications by Biochrom, as well as two different RPMI 1640 charges purchased from Invitrogen which were each containing 532 nmol/L riboflavin, b) a phenol red-free (Gibco 11835), and c) a conventional RPMI 1640 (Gibco 21875) with 13.284 µmol/L phenol red. All media were supplemented with 2 mmol/L L-alanyl-1-glutamine as stabilized glutamine source (Biochrom K0302 Lot 0755 S) and the same amount of 10% (v/v) of heat-inactivated fetal calf serum (FCS) that was purchased from Invitrogen (Lot 41Q7554K) with a yield of 198 nmol/L riboflavin. […] These medium concentrations define the riboflavin concentrations in controls (see below).
In addition to the influences exerted by the different types of media alone, the riboflavin-dependent impact on the outcome of the docetaxel treatment was investigated. For this purpose 100 µl/well of docetaxel dilutions containing threefold the concentration indicated were added into the wells of microwell plates. The following seven docetaxel concentrations were tested: 19.38, 38.75, 77.5, 155, 310, 620, and 1,240 pmol/L.
To examine photoactivation-dependent riboflavin-mediated effects disturbing the outcome of ex-vivo chemoresponse-evaluation by conventional cell culture medium, and in particular in the absence of flavin-protecting experimental conditions, varying amounts of riboflavin were added. A stock solution of 200 µM (-)-riboflavin (CAS 83-68-5, Sigma R9504, FW=376.37 g/mol, purity >99%, cell culture tested) in phosphate buffered saline was diluted to adjust in each case the highest final concentration in culture (this means: after completion of the assay by addition of the other two components to the final assay volume of 300 µL) to exactly 10 µmol/L. Serial log10-dilutions were made from this concentration in each corresponding medium. These gave final concentrations in cell culture of 10.000, 1.018, 0.12, and 0.03 µmol/L in the case of medium a) (the medium according to the method of the invention), and concentrations of 10.000, 1.449, 0.594, and 0.508 µmol/L using media b) and c).
In general, each combination of riboflavin and docetaxel were tested in duplicate, and controls without additional riboflavin in quadruplicate for each experimental setting in the same 96-well plate. The experimental conditions were as follows: For each of the used media, two different plates were prepared simultaneously and either handled completely under flavin-protecting conditions (illumination only by sodium discharge lamps with an emission wavelength of 589 nm [i]), or in the same bench (Thermo MSC 12) with the installed light inside their working chamber switched on. The dilution of docetaxel and those of riboflavin in the particular medium were prepared for all four plates of each medium type prior to the other working steps under flavin-protecting conditions. Thus the administrations of these dilutions took about 20 min either under flavin-protecting conditions or illuminated conditions. After completed preparation of the plates that thereafter contained 200 µL of both diluted compounds, the plates were incubated 2 h in the incubator to allow for adjustment of the appropriate pH.
In between the stock culture of KB was harvested by trypsination of a 3-days stock culture (exponential growth phase). Stock cultures of KB cells always were grown without any antibiotic or antimycotic in phenol red- and riboflavin-free RPMI 1640 supplemented with 10% (v/v) FCS and were adapted to this medium for more than five passages. They were always handled at room temperature or warmer and were never exposed to light other than the light of a sodium discharge lamp with an emission wavelength of 589 nm for at least five passages. […]

`CC(=O)O[C@@]12CO[C@@H]1C[C@H](O)[C@@]1(C)C(=O)[C@H](O)C3=C(C)[C@@H](OC(=O)[C@H](O)[C@@H](NC(=O)OC(C)(C)C)c4ccccc4)C[C@@](O)([C@@H](OC(=O)c4ccccc4)[C@H]21)C3(C)C` [docetaxel] showed an IC50 (Homo sapiens, Epithelial cell, 0.5 h, Plate No. 06; Riboflavin 594 nmol/L; medium b), daylight 30 min, read-out: IC50 for docetaxel normalized to medium control of medium with same riboflavin content) of 0.0838 nM, an IC50 (Homo sapiens, Epithelial cell, 0.5 h, Plate No. 07; Riboflavin 499 nmol/L; medium b) phenol red-free RPMI 1640, bench lighting <30 min, read-out: IC50 for docetaxel with reference to control with same riboflavin content) of 0.169 nM and an IC50 (Homo sapiens, Epithelial cell, 0.5 h, Plate No. 07; Riboflavin 499 nmol/L; medium b), bench lighting <30 min, read-out: IC50 for docetaxel normalized to medium control of medium with same riboflavin content) of 0.1 nM. The IC50 (Homo sapiens, Epithelial cell, 0.5 h, Plate No. 07; Riboflavin 508 nmol/L; medium b) phenol red-free RPMI 1640, bench lighting <30 min, read-out: IC50 for docetaxel with reference to control with same riboflavin content) was 0.124 nM, the IC50 (Homo sapiens, Epithelial cell, 0.5 h, Plate No. 07; Riboflavin 508 nmol/L; medium b), bench lighting <30 min, read-out: IC50 for docetaxel normalized to medium control of medium with same riboflavin content) was 0.0735 nM and the IC50 (Homo sapiens, Epithelial cell, 0.5 h, Plate No. 07; Riboflavin 594 nmol/L; medium b) phenol red-free RPMI 1640, bench lighting <30 min, read-out: IC50 for docetaxel with reference to control with same riboflavin content) was 0.172 nM. For the same molecule, the IC50 (Homo sapiens, Epithelial cell, 0.5 h, Plate No. 07; Riboflavin 594 nmol/L; medium b), bench lighting <30 min, read-out: IC50 for docetaxel normalized to medium control of medium with same riboflavin content) was 0.102 nM, the IC50 (Homo sapiens, Epithelial cell, 0.5 h, Plate No. 07; Riboflavin 1449 nmol/L; medium b) phenol red-free RPMI 1640, bench lighting <30 min, read-out: IC50 for docetaxel with reference to control with same riboflavin content) was 0.128 nM and the IC50 (Homo sapiens, Epithelial cell, 0.5 h, Plate No. 07; Riboflavin 1449 nmol/L; medium b), bench lighting <30 min, read-out: IC50 for docetaxel normalized to medium control of medium with same riboflavin content) was 0.0759 nM. For the same molecule, the IC50 (Homo sapiens, Epithelial cell, 0.5 h, Plate No. 07; Riboflavin 10000 nmol/L; medium b) phenol red-free RPMI 1640, bench lighting <30 min, read-out: IC50 for docetaxel with reference to control with same riboflavin content) was 0.135 nM, the IC50 (Homo sapiens, Epithelial cell, 0.5 h, Plate No. 07; Riboflavin 10000 nmol/L; medium b), bench lighting <30 min, read-out: IC50 for docetaxel normalized to medium control of medium with same riboflavin content) was 0.0801 nM and the IC50 (Homo sapiens, Epithelial cell, 0.5 h, Plate No. 08; Riboflavin 499 nmol/L; medium b) phenol red-free RPMI 1640, bench lighting <30 min, daylight 30 min, read-out: IC50 for docetaxel with reference to control with same riboflavin content) was 0.181 nM. For the same molecule, the IC50 (Homo sapiens, Epithelial cell, 0.5 h, Plate No. 08; Riboflavin 499 nmol/L; medium b), bench lighting <30 min, daylight 30 min, read-out: IC50 for docetaxel normalized to medium control of medium with same riboflavin content) was 0.1 nM, the IC50 (Homo sapiens, Epithelial cell, 0.5 h, Plate No. 08; Riboflavin 508 nmol/L; medium b) phenol red-free RPMI 1640, bench lighting <30 min, daylight 30 min, read-out: IC50 for docetaxel with reference to control with same riboflavin content) was 0.186 nM and the IC50 (Homo sapiens, Epithelial cell, 0.5 h, Plate No. 08; Riboflavin 508 nmol/L; medium b), bench lighting <30 min, daylight 30 min, read-out: IC50 for docetaxel normalized to medium control of medium with same riboflavin content) was 0.103 nM. It also gave an IC50 (Homo sapiens, Epithelial cell, 0.5 h, Plate No. 08; Riboflavin 594 nmol/L; medium b) phenol red-free RPMI 1640, bench lighting <30 min, daylight 30 min, read-out: IC50 for docetaxel with reference to control with same riboflavin content) of 0.208 nM, an IC50 (Homo sapiens, Epithelial cell, 0.5 h, Plate No. 08; Riboflavin 594 nmol/L; medium b), bench lighting <30 min, daylight 30 min, read-out: IC50 for docetaxel normalized to medium control of medium with same riboflavin content) of 0.115 nM and an IC50 (Homo sapiens, Epithelial cell, 0.5 h, Plate No. 10; Riboflavin 499 nmol/L; medium c) conventional RPMI 1640 with phenol red, daylight 30 min, read-out: IC50 for docetaxel with reference to control with same riboflavin content) of 0.421 nM. It also gave an IC50 (Homo sapiens, Epithelial cell, 0.5 h, Plate No. 10; Riboflavin 499 nmol/L; medium c), daylight 30 min, read-out: IC50 for docetaxel normalized to medium control of medium with same riboflavin content) of 0.1 nM, an IC50 (Homo sapiens, Epithelial cell, 0.5 h, Plate No. 10; Riboflavin 508 nmol/L; medium c) conventional RPMI 1640 with phenol red, daylight 30 min, read-out: IC50 for docetaxel with reference to control with same riboflavin content) of 0.337 nM and an IC50 (Homo sapiens, Epithelial cell, 0.5 h, Plate No. 10; Riboflavin 508 nmol/L; medium c), daylight 30 min, read-out: IC50 for docetaxel normalized to medium control of medium with same riboflavin content) of 0.0801 nM. For the same molecule, the IC50 (Homo sapiens, Epithelial cell, 0.5 h, Plate No. 10; Riboflavin 594 nmol/L; medium c) conventional RPMI 1640 with phenol red, daylight 30 min, read-out: IC50 for docetaxel with reference to control with same riboflavin content) was 0.264 nM, the IC50 (Homo sapiens, Epithelial cell, 0.5 h, Plate No. 10; Riboflavin 594 nmol/L; medium c), daylight 30 min, read-out: IC50 for docetaxel normalized to medium control of medium with same riboflavin content) was 0.0627 nM and the IC50 (Homo sapiens, Epithelial cell, 0.5 h, Plate No. 10; Riboflavin 1449 nmol/L; medium c) conventional RPMI 1640 with phenol red, daylight 30 min, read-out: IC50 for docetaxel with reference to control with same riboflavin content) was 0.136 nM. For the same molecule, the IC50 (Homo sapiens, Epithelial cell, 0.5 h, Plate No. 10; Riboflavin 1449 nmol/L; medium c), daylight 30 min, read-out: IC50 for docetaxel normalized to medium control of medium with same riboflavin content) was 0.0323 nM and the IC50 (Homo sapiens, Epithelial cell, 0.5 h, Plate No. 11; Riboflavin 499 nmol/L; medium c) conventional RPMI 1640 with phenol red, bench lighting <30 min, read-out: IC50 for docetaxel with reference to control with same riboflavin content) was 0.225 nM.
